Source: the supplement of paper PMC10307832

Key:
Test in all cases: relative viability (nuclei count vs DMSO), 5 days (fraction); higher = more cells survive
Daporinad + Tozasertib = compound: O=C(/C=C/c1cccnc1)NCCCCC1CCN(C(=O)c2ccccc2)CC1 [Daporinad] + Cc1cc(Nc2cc(N3CCN(C)CC3)nc(Sc3ccc(NC(=O)C4CC4)cc3)n2)n[nH]1 [Tozasertib] (partner 0.1 µM)
How it was run: (§1)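 Cells from lung cancer lines were seeded into 1536-well plates and, one day later, dosed by pin tool. Treatments were either a single drug or a fixed dose of an anchor drug with five library-drug doses (not always all listed) in √10 steps. After 5 days, nuclei were stained in a one-step fixation (final 0.05% Triton X-100, 1% formaldehyde, 1 ug/ml Hoechst) and counted on 4× images, and relative viability is the treated-to-vehicle nuclei ratio, as the median of duplicate plates.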

R406 + Crizotinib = compound: COc1cc(Nc2ncc(F)c(Nc3ccc4c(n3)NC(=O)C(C)(C)O4)n2)cc(OC)c1OC [R406] + C[C@@H](Oc1cc(-c2cnn(C3CCNCC3)c2)cnc1N)c1c(Cl)ccc(F)c1Cl [Crizotinib] (partner 1 µM)
How it was run: as §1

Daporinad + Vorinostat = compound: O=C(/C=C/c1cccnc1)NCCCCC1CCN(C(=O)c2ccccc2)CC1 [Daporinad] + O=C(CCCCCCC(=O)Nc1ccccc1)NO [Vorinostat] (partner 1 µM)
How it was run: as §1

R406 + Decitabine = compound: COc1cc(Nc2ncc(F)c(Nc3ccc4c(n3)NC(=O)C(C)(C)O4)n2)cc(OC)c1OC [R406] + Nc1ncn([C@H]2C[C@H](O)[C@@H](CO)O2)c(=O)n1 [Decitabine] (partner 2 µM)
How it was run: as §1

Cell Line | relative viability (Daporinad + Tozasertib; first compound 0.0005 µM) | relative viability (Daporinad + Tozasertib; first compound 0.001581 µM) | relative viability (Daporinad + Tozasertib; first compound 0.005 µM) | relative viability (Daporinad + Tozasertib; first compound 0.01581 µM) | relative viability (R406 + Crizotinib; first compound 0.08 µM) | relative viability (R406 + Crizotinib; first compound 0.253 µM) | relative viability (R406 + Crizotinib; first compound 0.8 µM) | relative viability (R406 + Crizotinib; first compound 2.53 µM) | relative viability (R406 + Crizotinib; first compound 8 µM) | relative viability (Daporinad + Vorinostat; first compound 0.0005 µM) | relative viability (Daporinad + Vorinostat; first compound 0.001581 µM) | relative viability (Daporinad + Vorinostat; first compound 0.005 µM) | relative viability (Daporinad + Vorinostat; first compound 0.01581 µM) | relative viability (R406 + Decitabine; first compound 0.08 µM) | relative viability (R406 + Decitabine; first compound 0.253 µM) | relative viability (R406 + Decitabine; first compound 0.8 µM) | relative viability (R406 + Decitabine; first compound 2.53 µM) | relative viability (R406 + Decitabine; first compound 8 µM)
LC-2-ad | 0.516 | 0.544 | 0.459 | 0.427 | 0.436 | 0.456 | 0.455 | 0.381 | 0.357 | 0.677 | 0.769 | 0.693 | 0.63 | 0.775 | 0.776 | 0.797 | 0.533 | 0.401
SW 1573 | 0.185 | 0.183 | 0.166 | 0.178 | 0.747 | 1 | 0.769 | 0.653 | 0.579 | 0.715 | 1.12 | 0.535 | 0.305 | 0.398 | 0.579 | 0.604 | 0.186 | 0.172
ChaGo-K-1 | 0.261 | 0.225 | 0.216 | 0.192 | 1.1 | 0.936 | 1.23 | 1.01 | 0.702 | 0.832 | 0.743 | 0.677 | 0.283 | 0.491 | 0.546 | 0.557 | 0.504 | 0.506
COR-L 105 | 0.38 | 0.282 | 0.357 | 0.341 | 0.955 | 0.89 | 0.822 | 0.8 | 0.263 | 0.775 | 0.705 | 0.861 | 0.851 | 0.593 | 0.561 | 0.758 | 0.563 | 0.475
NCI-H1975 | 0.789 | 0.742 | 0.661 | 0.692 | 0.949 | 1.13 | 0.977 | 0.46 | 0.221 | 0.748 | 0.728 | 0.813 | 0.689 | 0.368 | 0.401 | 0.386 | 0.31 | 0.19
NCI-H1993 | 0.62 | 0.576 | 0.633 | 0.656 | 0.933 | 0.866 | 0.809 | 0.75 | 0.661 | 0.766 | 0.723 | 0.775 | 0.88 | 0.623 | 0.634 | 0.599 | 0.537 | 0.542
SK-LU-1 | 0.316 | 0.289 | 0.281 | 0.35 | 0.997 | 1.07 | 1.15 | 0.424 | 0.155 | 0.851 | 0.85 | 0.919 | 0.788 | 0.583 | 0.832 | 0.728 | 0.599 | 0.476
NCI-H23 | 0.421 | 0.374 | 0.424 | 0.295 | 0.458 | 0.607 | 0.571 | 0.439 | 0.285 | 0.624 | 0.251 | 0.586 | 0.2 | 0.258 | 0.307 | 0.314 | 0.308 | 0.177
HCC-366 | 0.103 | 0.0734 | 0.124 | 0.171 | 0.581 | 0.794 | 0.81 | – | 0.294 | 0.363 | – | 0.389 | 0.321 | 0.317 | 0.372 | 0.36 | 0.344 | 0.112
EMC-BAC-2 | 0.321 | 0.311 | 0.224 | 0.204 | 0.747 | 0.855 | 0.796 | 0.738 | 0.262 | 0.319 | 0.567 | 0.421 | 0.301 | 0.942 | 1.03 | 1.06 | 0.974 | 0.855
NCI-H2405 | 0.82 | 0.783 | 0.954 | 0.888 | 0.769 | 0.989 | 0.861 | 0.78 | 0.638 | 0.851 | 1.06 | 0.874 | 0.31 | 0.703 | 0.814 | 0.756 | 0.615 | 0.369
NCI-H1944 | 0.273 | 0.252 | 0.261 | 0.286 | 1.1 | 1.24 | 1.04 | 0.875 | 0.737 | 0.57 | 0.524 | 0.647 | 0.613 | 0.393 | 0.41 | 0.358 | 0.383 | 0.399
NCI-H358 | 0.0969 | 0.0872 | 0.11 | 0.0799 | 0.639 | 0.587 | 0.498 | 0.434 | 0.221 | 0.688 | 0.75 | 0.801 | 0.558 | 0.224 | 0.211 | 0.222 | 0.119 | 0.125
EPLC-272H | 0.256 | 0.292 | 0.493 | 0.4 | 0.798 | 1.07 | 1.09 | 0.533 | 0.49 | 0.408 | 0.531 | 0.401 | 0.294 | 0.354 | 0.391 | 0.436 | 0.26 | 0.21
